Tests used:
IDO1 = target: T1, IDO1 (Homo sapiens, UniProt P14902); assay: IDO enzymatic assay; type: biochemical; settings: geometric mean; read-out: IDO1 GMean: IC50 (μM) (Biochemical Assay)
T1 construct: His tag (N); made in house; host or cells: E. coli
Procedure: (§1) Human IDO or TDO with N-terminal His tag is purified in E. coli. The IDO enzymatic assay is performed using 6 nM IDO and 10 μM L-Trp in the presence of 10 mM ascorbic acid, 5 μM methylene blue, 100 nM catalase and 0.01% Tween 20 in 50 mM sodium phosphate buffer (pH 6.5). 19 μL of above reaction mixture is added to wells of 384 well reaction plate containing 1 μL of various concentrations of test compound or DMSO vehicle and incubated for 20 minutes at room temperature. The TDO enzymatic reaction assay is performed using 1 nM TDO and 350 μM L-Trp in the presence of 10 mM ascorbic acid, 0.4 μM methylene blue, 100 nM catalase and 0.01% Tween 20 in 50 mM sodium phosphate buffer (pH 6.5). 19 μL of above reaction mixture is added to wells of 384 well reaction plate containing 1 μL of various concentrations of test compound or DMSO vehicle and incubated for 70 minutes at room temperature. 16 wells containing all the components of reaction mixture and 5% DMSO serve as high control. 16 well containing all the components except enzyme of reaction mixture and 5% DMSO serves as low control. Both IDO and TDO enzymatic reactions are stopped by addition of 4 μL of 30% TCA and incubated 30 minutes at 50° C. to hydrolyze N-formylkynurenine produced by IDO or TDO to kynurenine. Upon measuring the kynurenine level, the percentage inhibition is calculated at individual concentrations relative to high and low controls. The data is analyzed by using nonlinear regression to generate IC50 values.

TDO = target: T2, TDO (Homo sapiens, UniProt P48775); assay: TDO enzymatic assay; settings: geometric mean; read-out: TDO GMean: IC50 (μM) (Biochemical Assay)
T2 construct: His tag (N); made in house; host or cells: E. coli
Procedure: as §1

[1] = target: T3, IDO1-expressing HEK293 cell clones (Homo sapiens, UniProt P14902); assay: Cell based kynurenine assay, IDO1-expressing HEK293 cell clones; settings: HEK293 cells, 24 hours of incubation, geometric mean; read-out: HEK293 IDO1 Kynurenine GMean IC50 (μM) (Cellular Assay)
T3 construct: expressed in transfected cells; host or cells: HEK293
Procedure: (§2) IDO1-expressing or TDO-expressing HEK293 cell clones are generated upon stable transfection of plasmids expressing human IDO or human TDO under the control of CMV promoter. Cells are selected in DMEM media supplemented with 10% fetal bovine serum and 1 mg/ml G418 at 37° C. in a humidified incubator supplied with 5% CO2. The assays are performed as follows.
(§3) Cells were seeded in a 96 well plate in 50 μL of culture media at a density of 2.5×10^4 per well. Serial dilutions of compounds (in total volume of 50 μL culture media) are added into cells. 4 wells containing 0.2% DMSO treated cells serve as high controls and 4 wells containing media only with 0.2% DMSO serve as low controls. After 24 hours of incubation, the supernatant was transferred to a 384 well reaction plate and the kynurenine level determined. The percentage inhibition at individual concentrations relative to high and low controls is calculated. The data is analyzed by using nonlinear regression to generate IC50 values.

[2] = target: T4, TDO-expressing HEK293 cell clones (Homo sapiens, UniProt P48775); assay: Cell based kynurenine assay, TDO-expressing HEK293 cell clones; settings: HEK293 cells, 24 hours of incubation, geometric mean; read-out: HEK293 TDO Kynurenine GMean IC50 (μM) (Cellular Assay)
T4 construct: expressed in transfected cells; host or cells: HEK293
Procedure: as §2, §3

T3 sequence (P14902 whole entry): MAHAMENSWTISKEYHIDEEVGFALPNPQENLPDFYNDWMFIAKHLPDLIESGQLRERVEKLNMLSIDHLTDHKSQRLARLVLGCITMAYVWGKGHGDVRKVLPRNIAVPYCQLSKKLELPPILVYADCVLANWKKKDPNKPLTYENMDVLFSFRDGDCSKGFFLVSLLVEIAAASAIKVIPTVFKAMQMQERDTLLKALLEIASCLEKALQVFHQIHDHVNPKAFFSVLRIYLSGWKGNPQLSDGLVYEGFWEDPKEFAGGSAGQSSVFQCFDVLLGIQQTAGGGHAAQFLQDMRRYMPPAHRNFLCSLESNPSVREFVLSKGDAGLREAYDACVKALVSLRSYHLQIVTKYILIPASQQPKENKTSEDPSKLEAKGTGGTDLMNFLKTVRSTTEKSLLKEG
T1 sequence (P14902 whole entry): as above
T2 sequence (P48775 whole entry): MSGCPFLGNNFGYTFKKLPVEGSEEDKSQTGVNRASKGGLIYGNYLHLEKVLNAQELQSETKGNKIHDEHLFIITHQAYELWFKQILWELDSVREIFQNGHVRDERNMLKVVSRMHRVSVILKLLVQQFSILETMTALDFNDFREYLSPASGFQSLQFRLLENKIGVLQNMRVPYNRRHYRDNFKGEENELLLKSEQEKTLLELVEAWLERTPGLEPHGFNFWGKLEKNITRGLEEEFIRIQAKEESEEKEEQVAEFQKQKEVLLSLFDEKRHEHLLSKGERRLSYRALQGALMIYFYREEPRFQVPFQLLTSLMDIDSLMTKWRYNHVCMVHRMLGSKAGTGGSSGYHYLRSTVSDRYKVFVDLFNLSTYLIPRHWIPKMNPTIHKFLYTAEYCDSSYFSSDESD
T4 sequence (P48775 whole entry): as above

Row | Structure (SMILES) | IC50 (IDO1) | IC50 (TDO) | IC50 [1] | IC50 [2]
1 | CC(C)(C1CCN(C(=O)NCCC(F)(F)F)CC1)C(O)c1cc(Cl)cc2[nH]ncc12 (stereo not drawn) [Compound P-0086, 4-(1-(6-chloro-1H-indazol-4-yl)-1-hydroxy-2-methylpropan-2-yl)-N-(3,3,3-trifluoropropyl)piperidine-1-carboxamide] | 0.0001 to 10 µM | 0.0001 to 10 µM | 0.0001 to 10 µM | 0.0001 to 10 µM
2 | CC(C)(C1CCN(C(=O)CC#N)CC1)C(O)c1cc(Cl)cc2[nH]ncc12 (stereo not drawn) [Compound P-0047, 3-(4-(1-(6-chloro-1H-indazol-4-yl)-1-hydroxy-2-methylpropan-2-yl)piperidin-1-yl)-3-oxopropanenitrile] | 0.0001 to 10 µM | 0.0001 to 10 µM | 0.0001 to 10 µM | 0.0001 to 10 µM
3 | OC1(c2cc(Cl)cc3cn[nH]c23)CCC(F)(F)CC1 [Compound P-0008, 1-(5-chloro-1H-indazol-7-yl)-4,4-difluorocyclohexan-1-ol] | 0.0001 to 10 µM | 0.0001 to 10 µM | 0.0001 to 10 µM | 0.0001 to 10 µM
4 | CC(C)(C1CCN(C(=O)NCCCF)CC1)C(O)c1cc(Cl)cc2[nH]ncc12 (stereo not drawn) [Compound P-0090, 4-(1-(6-chloro-1H-indazol-4-yl)-1-hydroxy-2-methylpropan-2-yl)-N-(3-fluoropropyl)piperidine-1-carboxamide] | 0.0001 to 10 µM | 0.0001 to 10 µM | > 10 µM | 0.0001 to 10 µM
5 | CCNC(=O)N1CCC(C(F)(F)C(=O)c2c(F)c(Cl)cc3cn[nH]c23)CC1 [Compound P-0035, 4-(2-(5-chloro-6-fluoro-1H-indazol-7-yl)-1,1-difluoro-2-oxoethyl)-N-ethylpiperidine-1-carboxamide] | 0.0001 to 10 µM | 0.0001 to 10 µM | 0.0001 to 10 µM | 0.0001 to 10 µM
6 | CC(C)(N)C(=O)N1CCC(C(C)(C)[C@H](O)c2cc(Cl)cc3cn[nH]c23)CC1 [Compound P-0067, (S)-2-amino-1-(4-(1-(5-chloro-1H-indazol-7-yl)-1-hydroxy-2-methylpropan-2-yl)piperidin-1-yl)-2-methylpropan-1-one] | 0.0001 to 10 µM | 0.0001 to 10 µM | 0.0001 to 10 µM | 0.0001 to 10 µM
7 | C#CCNC(=O)N1CCC(C(C)(C)C(O)c2cc(Cl)cc3[nH]ncc23)CC1 (stereo not drawn) [Compound P-0088, 4-(1-(6-chloro-1H-indazol-4-yl)-1-hydroxy-2-methylpropan-2-yl)-N-(prop-2-yn-1-yl)piperidine-1-carboxamide] | 0.0001 to 10 µM | 0.0001 to 10 µM | > 10 µM | 0.0001 to 10 µM
8 | CN(C)CCONC(=O)N1CCC(C(C)(C)[C@H](O)c2cc(Cl)cc3cn[nH]c23)CC1 [Compound P-0063, (S)-4-(1-(5-chloro-1H-indazol-7-yl)-1-hydroxy-2-methylpropan-2-yl)-N-(2-(dimethylamino)ethoxy)piperidine-1-carboxamide] | 0.0001 to 10 µM | 0.0001 to 10 µM | 0.0001 to 10 µM | 0.0001 to 10 µM
9 | CC(C)(C1CCN(C(=O)c2cccnc2)CC1)C(O)c1cc(Cl)cc2[nH]ncc12 (stereo not drawn) [Compound P-0044, (4-(1-(6-chloro-1H-indazol-4-yl)-1-hydroxy-2-methylpropan-2-yl)piperidin-1-yl)(pyridin-3-yl)methanone] | 0.0001 to 10 µM | 0.0001 to 10 µM | 0.0001 to 10 µM | 0.0001 to 10 µM
10 | CC(C)(C1CCN(C(=O)c2ccc(C(F)(F)F)nc2)CC1)C(O)c1cc(Cl)cc2[nH]ncc12 (stereo not drawn) [Compound P-0053, (4-(1-(6-chloro-1H-indazol-4-yl)-1-hydroxy-2-methylpropan-2-yl)piperidin-1-yl)(6-(trifluoromethyl)pyridin-3-yl)methanone] | 0.0001 to 10 µM | 0.0001 to 10 µM | 0.0001 to 10 µM | 0.0001 to 10 µM

More lines, now with the values ahead:

Row | IC50 (IDO1) | IC50 (TDO) | IC50 [1] | IC50 [2] | Structure (SMILES)
11 | 0.0001 to 10 µM | 0.0001 to 10 µM | 0.0001 to 10 µM | 0.0001 to 10 µM | CC(C)(C1CCN(C(=O)NCc2ccc(C#N)nc2)CC1)C(O)c1cc(Cl)cc2[nH]ncc12 (stereo not drawn) [Compound P-0116, 4-(1-(6-chloro-1H-indazol-4-yl)-1-hydroxy-2-methylpropan-2-yl)-N-((6-cyanopyridin-3-yl)methyl)piperidine-1-carboxamide]
12 | 0.0001 to 10 µM | 0.0001 to 10 µM | 0.0001 to 10 µM | 0.0001 to 10 µM | CC(C)(C1CCN(C(=O)CN)CC1)[C@H](O)c1cc(Cl)cc2cn[nH]c12 [Compound P-0126, (S)-2-amino-1-(4-(1-(5-chloro-1H-indazol-7-yl)-1-hydroxy-2-methylpropan-2-yl)piperidin-1-yl)ethan-1-one]
13 | 0.0001 to 10 µM | 0.0001 to 10 µM | 0.0001 to 10 µM | 0.0001 to 10 µM | CC(C)(C1CCN(C(=O)NCC2CCC2)CC1)C(O)c1cc(Cl)cc2[nH]ncc12 (stereo not drawn) [Compound P-0092, 4-(1-(6-chloro-1H-indazol-4-yl)-1-hydroxy-2-methylpropan-2-yl)-N-(cyclobutylmethyl)piperidine-1-carboxamide]
14 | 0.0001 to 10 µM | 0.0001 to 10 µM | 0.0001 to 10 µM | 0.0001 to 10 µM | CC(C)(C1CCN(C(=O)CCO)CC1)[C@H](O)c1cc(Cl)cc2cn[nH]c12 [Compound P-0134, (S)-1-(4-(1-(5-chloro-1H-indazol-7-yl)-1-hydroxy-2-methylpropan-2-yl)piperidin-1-yl)-3-hydroxypropan-1-one]
15 | 0.0001 to 10 µM | 0.0001 to 10 µM | 0.0001 to 10 µM | 0.0001 to 10 µM | CC(C)(C1CCN(C(=O)NCc2ccc(C#N)cc2)CC1)C(O)c1cc(Cl)cc2[nH]ncc12 (stereo not drawn) [Compound P-0118, 4-(1-(6-chloro-1H-indazol-4-yl)-1-hydroxy-2-methylpropan-2-yl)-N-(4-cyanobenzyl)piperidine-1-carboxamide]
16 | 0.0001 to 10 µM | 0.0001 to 10 µM | 0.0001 to 10 µM | 0.0001 to 10 µM | N#CC1CCN(c2cc(Cl)cc3cn[nH]c23)CC1 [Compound P-0097, 1-(5-chloro-1H-indazol-7-yl)piperidine-4-carbonitrile]
17 | 0.0001 to 10 µM | 0.0001 to 10 µM | 0.0001 to 10 µM | 0.0001 to 10 µM | [2H]C([2H])([2H])C(C1CCN(C(=O)CO)CC1)(C(O)c1cc(Cl)cc2cn[nH]c12)C([2H])([2H])[2H] (stereo not drawn) [Compound P-0143, 1-(4-(2-((5-chloro-1H-indazol-7-yl)(hydroxy)methyl)propan-2-yl-1,1,1,3,3,3-d6)piperidin-1-yl)-2-hydroxyethan-1-one]
18 | 0.0001 to 10 µM | 0.0001 to 10 µM | 0.0001 to 10 µM | 0.0001 to 10 µM | CC(C)(C1CCN(C(=O)NC2CC(F)(F)C2)CC1)C(O)c1cc(Cl)cc2[nH]ncc12 (stereo not drawn) [Compound P-0094, 4-(1-(6-chloro-1H-indazol-4-yl)-1-hydroxy-2-methylpropan-2-yl)-N-(3,3-difluorocyclobutyl)piperidine-1-carboxamide]
19 | 0.0001 to 10 µM | 0.0001 to 10 µM | 0.0001 to 10 µM | 0.0001 to 10 µM | C[C@@H](N)C(=O)N1CCC(C(C)(C)[C@H](O)c2cc(Cl)cc3cn[nH]c23)CC1 [Compound P-0125, (R)-2-amino-1-(4-((S)-1-(5-chloro-1H-indazol-7-yl)-1-hydroxy-2-methylpropan-2-yl)piperidin-1-yl)propan-1-one]
20 | 0.0001 to 10 µM | 0.0001 to 10 µM | 0.0001 to 10 µM | 0.0001 to 10 µM | CC(C)(C1CCN(C(=O)N[C@H]2CCOC2)CC1)C(O)c1cc(Cl)cc2[nH]ncc12 (stereo partly drawn) [Compound P-0114, 4-(1-(6-chloro-1H-indazol-4-yl)-1-hydroxy-2-methylpropan-2-yl)-N-((S)-tetrahydrofuran-3-yl)piperidine-1-carboxamide]
21 | 0.0001 to 10 µM | 0.0001 to 10 µM | 0.0001 to 10 µM | 0.0001 to 10 µM | CC(C)(C1CCN(C(=O)C2(O)CC2)CC1)[C@H](O)c1cc(Cl)cc2cn[nH]c12 [Compound P-0133, (S)-(4-(1-(5-chloro-1H-indazol-7-yl)-1-hydroxy-2-methylpropan-2-yl)piperidin-1-yl)(1-hydroxycyclopropyl)methanone]

Source: patent publication US11149011B2, “Compounds and methods for IDO and TDO modulation, and indications therefor” (Plexxikon Inc., priority 2018, dated 2021)
